The record followed here is patent US7977313B2, “Methods and compositions for promoting localization of pharmaceutically active agents to bone” (Affinergy, Inc., priority 2007, dated 2011).

Read-outs that look alike come from different tables or passages of the source. Where a SMILES comes first, the peptide text is derived from it. Where no end group is shown, it is not given here. [ ]: non-standard residue; d: D form. The star is where a group is joined. Biotin = O=C1N[C@H]2[C@H](CS[C@H]2CCCCC(=O)*)N1; PEG10 = NCCOCCOCCOCCOCCOCCOCCOCCOCCOCCOCCC(=O)O

For one experiment, the target named is cancellous bone (CNB). The experiment is described as follows: Biotinylated peptide binding to cancellous bone. The protocol:
(§1) Relative binding strengths of the peptides to bone, also used as a measure of binding specificity, were determined by testing serial dilutions of the peptide for binding to bone, as represented by DBM. Plotting the absorbance observed across the concentration range for each peptide sequence yielded a binding curve of the peptides to its target substrate from which can be determined an EC50. The goal of the screenings and selections was to identify one or more peptides that bind to the selected substrate with binding specificity, with an EC50 of less than or equal to about 10 μM, and for some embodiments, in the nanomolar range (<1 μM). […] As a specific example, DBM was placed in a microtiter plate at a concentration of 3 mg equivalents per well, and then the wells were blocked with buffer containing 1% BSA for 1 hour at room temperature. The buffer containing 1% BSA was then aspirated from each well, and added to the wells were the serial dilutions of biotinylated peptide. The microtiter plates were incubated for 1 hour at room temperature on a plate shaker. The DBM was then allowed to settle, and the buffer was then aspirated from the wells. The DBM was washed three times with buffer-T, and then streptavidin-alkaline phosphatase was added. The microtiter plates were incubated for 1 hour at room temperature on a plate shaker. The DBM was then allowed to settle, and the buffer was then aspirated from the wells. The DBM was washed three times with buffer-T, pNPP (p-nitrophenyl phosphate) was used to develop the assay, and the absorbance was recorded at 405 nm. An estimate of the relative affinity (binding specificity, EC50) of a peptide for bone can be made by determining the concentration of peptide that gives one-half the maximal signal in the assay. Using the methodology illustrated in Example 1, the peptides illustrated in Table 3 were also tested for relative binding strength to demineralized cortical bone, and to cancellous bone, additional evidence of binding specificity for bone.

Experiment [1] addresses demineralized bone matrix (DBM). As to the kind of experiment: Biotinylated peptide binding to demineralized bone matrix (ELISA-type, streptavidin-alkaline phosphatase/pNPP). Details: species or system human. The protocol: Relative binding strengths of the peptides to bone, also used as a measure of binding specificity, were determined by testing serial dilutions of the peptide for binding to bone, as represented by DBM. Plotting the absorbance observed across the concentration range for each peptide sequence yielded a binding curve of the peptides to its target substrate from which can be determined an EC50. The goal of the screenings and selections was to identify one or more peptides that bind to the selected substrate with binding specificity, with an EC50 of less than or equal to about 10 μM, and for some embodiments, in the nanomolar range (<1 μM).
As a specific example, DBM was placed in a microtiter plate at a concentration of 3 mg equivalents per well, and then the wells were blocked with buffer containing 1% BSA for 1 hour at room temperature. The buffer containing 1% BSA was then aspirated from each well, and added to the wells were the serial dilutions of biotinylated peptide. The microtiter plates were incubated for 1 hour at room temperature on a plate shaker. The DBM was then allowed to settle, and the buffer was then aspirated from the wells. The DBM was washed three times with buffer-T, and then streptavidin-alkaline phosphatase was added. The microtiter plates were incubated for 1 hour at room temperature on a plate shaker. The DBM was then allowed to settle, and the buffer was then aspirated from the wells. The DBM was washed three times with buffer-T, pNPP (p-nitrophenyl phosphate) was used to develop the assay, and the absorbance was recorded at 405 nm. An estimate of the relative affinity (binding specificity, EC50) of a peptide for bone can be made by determining the concentration of peptide that gives one-half the maximal signal in the assay.
Example 1 illustrates methods to determine the relative binding strengths of peptide to bone. […] A biotin molecule was linked to the C-terminal lysine. Also shown in Table 3 are the relative binding strengths expressed as EC50 (μM) to bone as represented by DBM of human origin. It is noted that the EC50 values were the same or substantially similar when DBM of rabbit origin was used.
Relative binding strength embodiments of the compositions to bone, also used as a measure of binding specificity, were determined by testing serial dilutions of the composition for binding to bone, as described in Example 1 Section B. Plotting the absorbance observed across the concentration range for each composition yielded a binding curve and rough dissociation constant of the composition for bone. Similar to a peptide having binding specificity for bone from which the composition is made, one property of the composition embodiments is that they bind to bone with binding specificity as measured by an EC50 of less than or equal to about 10 μM, and for some embodiments, in the nanomolar range (<1 μM). Using the methods outlined in Example 1B herein, assayed were the relative binding strengths of […] illustrative composition embodiments which include the amino acid sequences shown in SEQ ID NOs: 137, 138, 139, 140, 141 & 142, see Table 7, and synthesized to include a C-terminal amino linker which was biotinylated to facilitate determination of the relative binding strengths to bone. Shown in Table 8 are the relative binding strengths of composition embodiments to bone, as represented by DBM, expressed as EC50 (in μM).

For experiment [2], the target named is demineralized cortical bone (DCB). The experiment is described as follows: Biotinylated peptide binding to demineralized cortical bone. The protocol: as §1
Where [3] appears, read: DBM of human origin, biotinylated peptide, read-out: Binding specificity for bone (e.g., DBM) EC50.
Where [4] appears, read: demineralized bone matrix, read-out: EC50 (μM) for DBM.
Where [5] appears, read: bone as represented by DBM, biotinylated composition, read-out: Binding specificity for bone EC50 (compositions X1-J-X2).

A word on the EC50: it is the concentration needed to bring the measured effect to its halfway point. Regarding `CC[C@H](C)[C@H](NC(=O)[C@@H](N)CO)C(=O)N[C@@H](Cc1ccccc1)C(=O)N[C@@H](CO)C(=O)N[C@H](C(=O)N[C@@H](Cc1c[nH]c2ccccc12)C(=O)N[C@@H](CC(N)=O)C(=O)N1CCC[C@H]1C(=O)N[C@@H](Cc1c[nH]c2ccccc12)C(=O)N[C@@H](CO)C(=O)N1CCC[C@H]1C(=O)N[C@@H](Cc1ccc(O)cc1)C(=O)N[C@@H](CO)C(=O)N[C@H](C(=O)N[C@@H](CO)C(=O)N[C@@H](CCCNC(=N)N)C(=O)NCC(=O)N[C@@H](CO)C(=O)N[C@@H](CO)C(=O)NCC(=O)N[C@@H](CCCCNC(=O)CCCC[C@@H]1SC[C@@H]2NC(=O)N[C@@H]21)C(=O)O)C(C)C)[C@@H](C)O` [compound 40] (H-SIFSTWNPWSPYSVSRGSSGK(Biotin)-OH), the EC50 (on cancellous bone (CNB); in experiment [1] (setting [3]); in experiment [1] (setting [4]); in experiment [2]) was under 1 µM in each case.
Consider `CC(C)[C@H](NC(=O)[C@@H]1CCCN1C(=O)[C@H](C)NC(=O)[C@H](C)NC(=O)[C@H](CO)NC(=O)CNC(=O)[C@H](CC(N)=O)NC(=O)[C@H](Cc1c[nH]c2ccccc12)NC(=O)[C@H](Cc1ccccc1)NC(=O)CNC(=O)[C@H](Cc1c[nH]c2ccccc12)NC(=O)[C@H](Cc1c[nH]c2ccccc12)NC(=O)[C@@H](N)CO)C(=O)N[C@@H](Cc1c[nH]c2ccccc12)C(=O)N[C@@H](CO)C(=O)N[C@@H](CCCNC(=N)N)C(=O)NCC(=O)N[C@@H](CO)C(=O)N[C@@H](CO)C(=O)NCC(=O)N[C@@H](CCCCNC(=O)CCCC[C@@H]1SC[C@@H]2NC(=O)N[C@@H]21)C(=O)O` [compound 41] (H-SWWGFWNGSAAPVWSRGSSGK(Biotin)-OH), for which the EC50 was at most 0.1 µM on cancellous bone (CNB), under 0.1 µM in experiment [1] (setting [3]), under 0.1 µM in experiment [1] (setting [4]) and under 0.1 µM in experiment [2].
In the case of `C[C@H](NC(=O)CNC(=O)[C@H](CO)NC(=O)CNC(=O)[C@H](Cc1c[nH]c2ccccc12)NC(=O)[C@H](Cc1c[nH]c2ccccc12)NC(=O)[C@H](Cc1c[nH]c2ccccc12)NC(=O)[C@H](CO)NC(=O)CNC(=O)[C@H](Cc1ccccc1)NC(=O)[C@@H](N)CO)C(=O)N[C@@H](C)C(=O)N[C@@H](CO)C(=O)N[C@@H](CO)C(=O)N[C@@H](CCCNC(=N)N)C(=O)NCC(=O)N[C@@H](CO)C(=O)N[C@@H](CO)C(=O)NCC(=O)N[C@@H](CCCCNC(=O)CCCC[C@@H]1SC[C@@H]2NC(=O)N[C@@H]21)C(=O)O` [compound 42] (H-SFGSWWWGSGAASSRGSSGK(Biotin)-OH), the EC50 at cancellous bone (CNB) is under 0.5 µM; in experiment [1] (setting [3]), under 0.1 µM; in experiment [1] (setting [4]) it was under 0.1 µM; in experiment [2], under 0.1 µM.
Regarding `CC(C)C[C@H](NC(=O)[C@H](CO)NC(=O)[C@H](CO)NC(=O)[C@H](Cc1ccccc1)NC(=O)[C@H](C)NC(=O)[C@H](CCC(=O)O)NC(=O)[C@H](Cc1c[nH]c2ccccc12)NC(=O)[C@H](C)NC(=O)CNC(=O)[C@H](C)NC(=O)CNC(=O)[C@H](CO)NC(=O)[C@H](CO)NC(=O)CNC(=O)[C@H](CCCNC(=N)N)NC(=O)[C@H](CO)NC(=O)[C@H](Cc1c[nH]c2ccccc12)NC(=O)[C@@H](NC(=O)[C@@H]1CCCN1C(=O)[C@H](C)NC(=O)[C@H](C)NC(=O)[C@H](CO)NC(=O)CNC(=O)[C@H](CC(N)=O)NC(=O)[C@H](Cc1c[nH]c2ccccc12)NC(=O)[C@H](Cc1ccccc1)NC(=O)CNC(=O)[C@H](Cc1c[nH]c2ccccc12)NC(=O)[C@H](Cc1c[nH]c2ccccc12)NC(=O)[C@@H](N)CO)C(C)C)C(=O)N[C@@H](CO)C(=O)NCC(=O)N[C@@H](CO)C(=O)N[C@@H](CCCNC(=N)N)C(=O)N[C@H](C(=O)NCC(=O)N[C@@H](CO)C(=O)N[C@@H](CO)C(=O)NCC(=O)N[C@@H](CCCCNC(=O)CCCC[C@@H]1SC[C@@H]2NC(=O)N[C@@H]21)C(=O)O)C(C)C` [compound 138] (H-SWWGFWNGSAAPVWSRGSSGAGAWEAFSSLSGSRVGSSGK(Biotin)-OH; N-terminus and C-terminus assumed), in experiment [1] (setting [5]), the EC50 is under 0.1 µM.
As for `CC(C)C[C@H](NC(=O)[C@H](CO)NC(=O)[C@H](CO)NC(=O)[C@H](Cc1ccccc1)NC(=O)[C@H](C)NC(=O)[C@H](CCC(=O)O)NC(=O)[C@H](Cc1c[nH]c2ccccc12)NC(=O)[C@H](C)NC(=O)CNC(=O)CNC(=O)CNC(=O)CCOCCOCCOCCOCCOCCOCCOCCOCCOCCOCCNC(=O)CNC(=O)[C@H](CCCNC(=N)N)NC(=O)[C@H](CO)NC(=O)[C@H](CO)NC(=O)[C@H](C)NC(=O)[C@H](C)NC(=O)CNC(=O)[C@H](CO)NC(=O)CNC(=O)[C@H](Cc1c[nH]c2ccccc12)NC(=O)[C@H](Cc1c[nH]c2ccccc12)NC(=O)[C@H](Cc1c[nH]c2ccccc12)NC(=O)[C@H](CO)NC(=O)CNC(=O)[C@H](Cc1ccccc1)NC(=O)[C@@H](N)CO)C(=O)N[C@@H](CO)C(=O)NCC(=O)N[C@@H](CO)C(=O)N[C@@H](CCCNC(=N)N)C(=O)N[C@H](C(=O)NCC(=O)N[C@@H](CO)C(=O)N[C@@H](CO)C(=O)NCC(=O)N[C@@H](CCCCNC(=O)CCCC[C@@H]1SC[C@@H]2NC(=O)N[C@@H]21)C(N)=O)C(C)C` [compound 141] (H-SFGSWWWGSGAASSRG[PEG10]GGGAWEAFSSLSGSRVGSSGK(Biotin)-NH2; N-terminus and C-terminus assumed), in experiment [1] (setting [5]), the EC50 is under 0.5 µM.
`CC(C)C[C@H](NC(=O)[C@H](CO)NC(=O)[C@H](CO)NC(=O)[C@H](Cc1ccccc1)NC(=O)[C@H](C)NC(=O)[C@H](CCC(=O)O)NC(=O)[C@H](Cc1c[nH]c2ccccc12)NC(=O)[C@H](C)NC(=O)CNC(=O)[C@H](C)NC(=O)CCOCCOCCOCCOCCOCCOCCOCCOCCOCCOCCNC(=O)CNC(=O)[C@H](CCCNC(=N)N)NC(=O)[C@H](CO)NC(=O)[C@H](CO)NC(=O)[C@H](C)NC(=O)[C@H](C)NC(=O)CNC(=O)[C@H](CO)NC(=O)CNC(=O)[C@H](Cc1c[nH]c2ccccc12)NC(=O)[C@H](Cc1c[nH]c2ccccc12)NC(=O)[C@H](Cc1c[nH]c2ccccc12)NC(=O)[C@H](CO)NC(=O)CNC(=O)[C@H](Cc1ccccc1)NC(=O)[C@@H](N)CO)C(=O)N[C@@H](CO)C(=O)NCC(=O)N[C@@H](CO)C(=O)N[C@@H](CCCNC(=N)N)C(=O)N[C@H](C(=O)NCC(=O)N[C@@H](CO)C(=O)N[C@@H](CO)C(=O)NCC(=O)N[C@@H](CCCCNC(=O)CCCC[C@@H]1SC[C@@H]2NC(=O)N[C@@H]21)C(N)=O)C(C)C` [compound 142] (H-SFGSWWWGSGAASSRG[PEG10]AGAWEAFSSLSGSRVGSSGK(Biotin)-NH2; N-terminus and C-terminus assumed): the EC50 in experiment [1] (setting [5]) was under 0.5 µM.
As for “SFGSWWWGSGAASSRGSSGGGALGFPLKGEVVEGWAGSSGK(Biotin) [compound 140]”, in experiment [1] (setting [5]), the EC50 is under 0.5 µM.
Turning to “SWWGFWNGSAAPVWSRGSSESAGAWEAFSSLSGSRVGSSGK(Biotin) [compound 137]”, the EC50 in experiment [1] (setting [5]) is under 0.5 µM.
With “SWWGFWNGSAAPVWSRGSSGAGALGFPLKGEVVEGWAGSSGK(Biotin) [compound 139]”, the concentration giving a half-maximal response (EC50) in experiment [1] (setting [5]) is under 0.5 µM.
